Target: T1, YSK4 (h) (Homo sapiens, UniProt Q56UN5)
T1 construct: purchased Millipore
T1 sequence (Q56UN5 1-1328): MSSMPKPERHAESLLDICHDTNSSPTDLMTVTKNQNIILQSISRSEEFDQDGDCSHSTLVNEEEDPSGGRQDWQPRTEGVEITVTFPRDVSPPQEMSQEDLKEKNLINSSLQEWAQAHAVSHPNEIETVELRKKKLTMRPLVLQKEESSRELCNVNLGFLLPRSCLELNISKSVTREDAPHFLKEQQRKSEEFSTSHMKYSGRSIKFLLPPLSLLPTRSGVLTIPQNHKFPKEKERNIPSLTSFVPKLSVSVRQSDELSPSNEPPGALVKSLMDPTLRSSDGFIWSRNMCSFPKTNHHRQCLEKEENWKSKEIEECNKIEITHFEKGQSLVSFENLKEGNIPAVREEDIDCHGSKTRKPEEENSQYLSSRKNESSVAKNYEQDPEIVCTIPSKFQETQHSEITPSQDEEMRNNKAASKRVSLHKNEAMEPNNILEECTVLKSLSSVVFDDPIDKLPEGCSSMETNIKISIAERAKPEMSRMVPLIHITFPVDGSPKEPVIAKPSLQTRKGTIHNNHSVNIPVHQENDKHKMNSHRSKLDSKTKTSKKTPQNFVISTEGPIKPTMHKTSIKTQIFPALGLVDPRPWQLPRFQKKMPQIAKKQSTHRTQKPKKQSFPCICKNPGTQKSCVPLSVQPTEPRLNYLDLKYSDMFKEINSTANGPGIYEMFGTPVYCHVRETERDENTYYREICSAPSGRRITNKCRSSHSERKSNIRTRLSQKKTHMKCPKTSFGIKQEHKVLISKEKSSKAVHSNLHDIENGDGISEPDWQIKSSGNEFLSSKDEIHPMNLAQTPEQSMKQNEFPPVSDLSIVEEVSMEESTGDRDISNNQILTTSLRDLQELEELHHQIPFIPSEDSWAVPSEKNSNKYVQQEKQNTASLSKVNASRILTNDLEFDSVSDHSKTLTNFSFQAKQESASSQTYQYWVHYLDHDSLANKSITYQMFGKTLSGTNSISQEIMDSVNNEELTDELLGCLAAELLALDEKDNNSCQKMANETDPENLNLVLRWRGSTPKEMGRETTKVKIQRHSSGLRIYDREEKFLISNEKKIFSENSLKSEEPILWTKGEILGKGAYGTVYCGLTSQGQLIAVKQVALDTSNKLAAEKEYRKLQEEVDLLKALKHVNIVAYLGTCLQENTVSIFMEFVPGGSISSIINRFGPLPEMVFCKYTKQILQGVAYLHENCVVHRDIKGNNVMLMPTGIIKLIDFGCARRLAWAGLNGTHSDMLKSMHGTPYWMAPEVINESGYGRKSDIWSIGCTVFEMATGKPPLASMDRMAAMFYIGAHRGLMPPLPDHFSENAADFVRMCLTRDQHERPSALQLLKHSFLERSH
Assay: Commercial kinase activity assay (Millipore, 33P-ATP filter)
Format: biochemical
Settings: 10 μM test compound
Protocol: LOK (h) was incubated with 8 mM MOPS pH 7.0, 0.2 mM EDTA, 250 μM […], 10 mM MgAcetate and [γ-^33P-ATP] (specific activity approx. 500 cpm/pmol, concentration as required). The reaction was initiated by the addition of the MgATP mix. After incubation for 40 minutes at room temperature, the reaction was stopped by the addition of 3% phosphoric acid solution. 10 μL of the reaction was then spotted onto a P30 filtermat and washed three times for 5 minutes in 75 mM phosphoric acid and once in methanol prior to drying and scintillation counting. PI3K p110β/p85α (h) PI3K (p110β/p85α) (h) was incubated in assay buffer containing 10 μM phosphatidylinositol-4,5-bisphosphate and MgATP (concentration as required). The reaction was initiated by the addition of the MgATP mix. After incubation for 30 minutes at room temperature, the reaction was stopped by the addition of stop solution containing EDTA and biotinylated phosphatidylinositol-3,4,5-trisphosphate. Finally, detection buffer was added, which contains europium-labelled anti-GST monoclonal antibody, GST-tagged GRP1 PH domain and streptavidinallophycocyanin. The plate was then read in time-resolved fluorescence mode and the homogenous time-resolved fluorescence (HTRF®) signal determined according to the formula HTRF=10000×(Em665nm/Em620 nm). YSK4 (h) YSK4 (h) was incubated with 8 mM MOPS pH 7.0, 0.2 mM EDTA, 250 […], 10 mM MgAcetate and [γ-^33P-ATP] (specific activity approx. 500 cpm/pmol, concentration as required). The reaction was initiated by the addition of the MgATP mix. After incubation for 40 minutes at room temperature, the reaction was stopped by the addition of 3% phosphoric acid solution. 10 μL of the reaction was then spotted onto a P30 filtermat and washed three times for 5 minutes in 75 mM phosphoric acid and once in methanol prior to drying and scintillation counting. PI4KA (PI4K alpha) The 2× PI4KA (PI4K alpha)/PI Lipid Kinase Substrate mixture was prepared in 20 mM Tris, pH 7.5, 0.4% Triton X-100, 5 mM MgCl2, 0.5 mM EGTA. The final 10 μL Kinase Reaction consisted of 75-300 ng PI4KA (PI4K alpha) and 100 μM PI Lipid Kinase Substrate in 7.5 mM HEPES, 10 mM Tris, pH 7.5, 0.2% Triton X-100, 2.5 mM MgCl2, 0.25 mM EGTA. After the 1 hour Kinase Reaction incubation, 5 μL of Detection Mix consisting of a europium labeled anti-ADP antibody, an Alexa Fluor® 647 labeled ADP tracer, and EDTA (to stop the kinase reaction) was added to the assay well. ADP formed by the kinase reaction (in the absence of an inhibitor) displaced the Alexa Fluor® 647 labeled ADP tracer from the antibody, resulting in a decrease in the TR-FRET signal. […] PI4KB (PI4K beta) The 2× PI4KB (PI4K beta)/PI Lipid Kinase Substrate mixture was prepared in 50 mM HEPES pH 7.5, 0.1% CHAPS, 1 mM EGTA, 4 mM MgCl2. […]

## Nc1nc(N2CCN(C(=O)COc3ccc(Cl)cc3)CC2)c2nc(-c3cccnc3)sc2n1 [formula (1), 5-amino-7-[4-(4-chlorophenoxyacetyl)piperazin-1-yl]-2-(pyridin-3-yl)thiazolo[5,4-d]pyrimidine]
  Kinase activity: 108 percentage of control
